Experimental data: patent publication US8633245B2, “PAI-1 inhibitor” (Institute of Medicinal Molecular Design, Inc., priority 2008, dated 2014)
Each block holds one compound with its values, some of them ahead of it.

Experiments:
Format in all cases: biochemical
recombinant rat PAI-1 = molecular target: T1, recombinant rat PAI-1 (Rattus norvegicus, UniProt P20961); assay: Test Example 3: rat PAI-1 inhibitory activity (as Test Example 2 with rat PAI-1); conditions: for Inhibition Rate of PAI-1 Activity (%) / IC50: rat PAI-1; for IC50: calculated from the inhibition rates; for inhibition at 10 µM: read-out: Inhibition Rate of PAI-1 Activity (%)
T1 construct: purchased Molecular Innovations, Inc
T1 sequence (P20961 24-402): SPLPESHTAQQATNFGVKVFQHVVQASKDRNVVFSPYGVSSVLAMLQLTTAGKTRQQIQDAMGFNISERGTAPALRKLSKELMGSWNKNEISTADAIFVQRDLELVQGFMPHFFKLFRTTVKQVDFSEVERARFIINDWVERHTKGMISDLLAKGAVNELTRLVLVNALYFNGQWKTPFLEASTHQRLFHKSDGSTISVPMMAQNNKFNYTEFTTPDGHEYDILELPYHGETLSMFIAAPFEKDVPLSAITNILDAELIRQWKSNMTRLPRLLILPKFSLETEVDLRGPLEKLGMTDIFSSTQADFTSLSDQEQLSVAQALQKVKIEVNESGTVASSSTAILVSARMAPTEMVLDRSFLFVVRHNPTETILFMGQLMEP
Method: To this solution, 6 μl of 80 nM recombinant human PAI-1 (Molecular Innovations, Inc.) solution prepared with Tris buffer was added, and the plate was incubated for 5 minutes at room temperature. Furthermore, 30 μl of 800 IU/ml two-chain tPA (Activity Standard; American diagnostica, inc.) prepared with Tris buffer was added, and the mixed solution was incubated for 15 minutes at room temperature. Then, 30 μl of 400 μM fluorogenic substrate (Pyr-Gly-Arg-MCA; Peptide Institute, Inc.) for tPA prepared with Tris buffer was added and reacted for 30 minutes at room temperature.

recombinant human PAI-1 [1] = molecular target: T2, recombinant human PAI-1 (Homo sapiens, UniProt P05121); assay: Test Example 1: human PAI-1 inhibitory activity (tPA fluorogenic substrate, pH 7.5 Tris buffer); conditions: for Inhibition Rate of PAI-1 Activity (%): Tris buffer
T2 construct: purchased Molecular Innovations, Inc
T2 sequence (P05121 24-402): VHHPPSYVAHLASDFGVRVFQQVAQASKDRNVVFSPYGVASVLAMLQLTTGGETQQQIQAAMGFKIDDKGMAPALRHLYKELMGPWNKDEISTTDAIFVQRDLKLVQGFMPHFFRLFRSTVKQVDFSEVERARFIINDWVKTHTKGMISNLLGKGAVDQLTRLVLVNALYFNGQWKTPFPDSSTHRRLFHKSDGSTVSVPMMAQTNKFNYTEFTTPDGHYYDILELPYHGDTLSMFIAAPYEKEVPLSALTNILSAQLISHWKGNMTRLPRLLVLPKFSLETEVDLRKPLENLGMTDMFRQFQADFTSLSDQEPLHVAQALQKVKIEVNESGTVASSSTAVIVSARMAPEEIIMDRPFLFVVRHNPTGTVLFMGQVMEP
Method: 50 mM Tris, 150 mM NaCl, 10 μg/ml BSA, 0.01% Tween80 (SIGMA-ALDRICH Corporation)

recombinant human PAI-1 [2] = molecular target: T2, recombinant human PAI-1; assay: Test Example 2: human PAI-1 inhibitory activity (tPA fluorogenic substrate, pH 7.4 HEPES buffer); conditions: for Inhibition Rate of PAI-1 Activity (%): HEPES buffer; for IC50: human PAI-1, calculated from the inhibition rates; for inhibition at 3 µM: read-out: Inhibition Rate of PAI-1 Activity (%)
Method: 0.1 M HEPES, 0.1 M NaCl. 1 mM EDTA. 0.1% Polyethylene glycol 8,000 (Hampton Research Corporation),
2 mM Dimethyldecylphoshine oxide [Apo-10] (Fluka Corporation)

Compound: Cc1cc(N(C)C)c(-c2ccc(OC(F)(F)F)cc2)cc1N(Cc1ccc(C(C)(C)C)cc1)C(=O)C(=O)O [Compound 215]
Inhibition Rate of PAI-1 Activity (%) (recombinant rat PAI-1; compound concentration 0.3 μM): 2%
Inhibition Rate of PAI-1 Activity (%) (recombinant rat PAI-1; compound concentration 1 μM): 16%
Inhibition Rate of PAI-1 Activity (%) (recombinant rat PAI-1; compound concentration 3 μM): 84%
Inhibition Rate of PAI-1 Activity (%) (recombinant rat PAI-1; compound concentration 10 μM): 97%
Inhibition Rate of PAI-1 Activity (%) (recombinant human PAI-1 [1]; Compound Concentration 5 μM): 90%
Inhibition Rate of PAI-1 Activity (%) (recombinant human PAI-1 [1]; Compound Concentration 10 μM): 92%
Inhibition Rate of PAI-1 Activity (%) (recombinant human PAI-1 [2]; Compound Concentration 0.1 μM): 7%
Inhibition Rate of PAI-1 Activity (%) (recombinant human PAI-1 [2]; Compound Concentration 0.3 μM): 18%
Inhibition Rate of PAI-1 Activity (%) (recombinant human PAI-1 [2]; Compound Concentration 1 μM): 54%
Inhibition Rate of PAI-1 Activity (%) (recombinant human PAI-1 [2]; Compound Concentration 3 μM): 95%

Compound: CC(C)(C)c1ccc(C(c2ccccc2)N(C(=O)C(=O)O)c2ccc(-c3ccc(OC(F)(F)F)cc3)cc2)cc1 (stereo not drawn) [Compound 222]
IC50 (recombinant rat PAI-1): 1340 nM
IC50 (recombinant human PAI-1 [2]): 1060 nM
inhibition at 3 µM (recombinant human PAI-1 [2]): > 99%

Compound: CCC(CC)Oc1ccc(N(CCCc2ccccc2)C(=O)C(=O)O)cc1-c1ccc(OC(F)(F)F)cc1 [Compound 230]
IC50 (recombinant rat PAI-1): 1830 nM
IC50 (recombinant human PAI-1 [2]): 1320 nM

Compound: CCN(CC)c1ccc(N(Cc2ccc(C(C)(C)C)cc2)C(=O)C(=O)O)cc1-c1ccc(OC(F)(F)F)cc1 [Compound 213]
Inhibition Rate of PAI-1 Activity (%) (recombinant rat PAI-1; compound concentration 0.3 μM): 8%
Inhibition Rate of PAI-1 Activity (%) (recombinant rat PAI-1; compound concentration 1 μM): 26%
Inhibition Rate of PAI-1 Activity (%) (recombinant rat PAI-1; compound concentration 3 μM): 90%
Inhibition Rate of PAI-1 Activity (%) (recombinant rat PAI-1; compound concentration 10 μM): 78%
Inhibition Rate of PAI-1 Activity (%) (recombinant human PAI-1 [1]; Compound Concentration 5 μM): 93%
Inhibition Rate of PAI-1 Activity (%) (recombinant human PAI-1 [1]; Compound Concentration 10 μM): 84%
Inhibition Rate of PAI-1 Activity (%) (recombinant human PAI-1 [2]; Compound Concentration 0.1 μM): 0%
Inhibition Rate of PAI-1 Activity (%) (recombinant human PAI-1 [2]; Compound Concentration 0.3 μM): 10%
Inhibition Rate of PAI-1 Activity (%) (recombinant human PAI-1 [2]; Compound Concentration 1 μM): 48%
Inhibition Rate of PAI-1 Activity (%) (recombinant human PAI-1 [2]; Compound Concentration 3 μM): 98%

Compound: CCN(CC)c1ccc(N(CCCc2ccccc2)C(=O)C(=O)O)c(-c2ccc(OC(F)(F)F)cc2)c1 [Compound 238]
IC50 (recombinant rat PAI-1): 3140 nM
IC50 (recombinant human PAI-1 [2]): 1570 nM

Compound: CC(C)(Oc1cccc(-c2ccc(OC(F)(F)F)cc2)c1OCc1ccc(C(C)(C)C)cc1)C(=O)O [Compound 118]
IC50 (recombinant rat PAI-1): 1920 nM
IC50 (recombinant human PAI-1 [2]): 1010 nM
inhibition at 3 µM (recombinant human PAI-1 [2]): > 99%

Compound: CCCCOc1ccc(-c2ccc(OC(F)(F)F)cc2)cc1N(CCCCc1ccccc1)C(=O)C(=O)O [Compound 231]
IC50 (recombinant rat PAI-1): 1570 nM
inhibition at 10 µM (recombinant rat PAI-1): > 99%
IC50 (recombinant human PAI-1 [2]): 1190 nM

Compound: CC(C)(C)c1ccc(COc2ccc(-c3ccc(OC(F)(F)F)cc3)cc2OCC(=O)O)cc1 [Compound 105]
IC50 (recombinant rat PAI-1): 2190 nM
inhibition at 25 µM (recombinant human PAI-1 [1]; read-out: Inhibition Rate of PAI-1 Activity (%)): > 99%
IC50 (recombinant human PAI-1 [2]): 1070 nM

Compound: CC(C)(C)c1ccc(Oc2ccc(-c3ccc(OC(F)(F)F)cc3)cc2CCC(=O)O)cc1 [Compound 13]
inhibition at 10 µM (recombinant rat PAI-1): > 99%

Compound: CC(C)(Oc1cc(-c2ccc(OC(F)(F)F)cc2)ccc1OCc1ccc(C(C)(C)C)cc1)C(=O)O [Compound 106]
IC50 (recombinant rat PAI-1): 1710 nM
inhibition at 10 µM (recombinant rat PAI-1): > 99%
IC50 (recombinant human PAI-1 [2]): 1150 nM

Second part, the compound after the results:

IC50 (recombinant rat PAI-1): 3180 nM
IC50 (recombinant human PAI-1 [2]): 1340 nM
Compound: CC(C)(C)c1ccc(Oc2cccc(-c3ccc(OC(F)(F)F)cc3)c2CCC(=O)O)cc1 [Compound 94]

IC50 (recombinant rat PAI-1): 3240 nM
IC50 (recombinant human PAI-1 [2]): 1310 nM
Compound: CC(C)(C)c1ccc(COc2c(CCC(=O)O)cccc2-c2ccc(OC(F)(F)F)cc2)cc1 [Compound 88]

IC50 (recombinant rat PAI-1): 1980 nM
IC50 (recombinant human PAI-1 [2]): 790 nM
Compound: CC(C)(C)c1ccc(Oc2cc(-c3ccc(OC(F)(F)F)cc3)ccc2OCC(=O)O)cc1 [Compound 112]

IC50 (recombinant rat PAI-1): 2200 nM
IC50 (recombinant human PAI-1 [2]): 1060 nM
Compound: CC(C)(C)c1ccc(Oc2cc(-c3ccc(OC(F)(F)F)cc3)ccc2CCC(=O)O)cc1 [Compound 80]

Inhibition Rate of PAI-1 Activity (%) (recombinant rat PAI-1; compound concentration 0.3 μM): 4%
Inhibition Rate of PAI-1 Activity (%) (recombinant rat PAI-1; compound concentration 1 μM): 17%
Inhibition Rate of PAI-1 Activity (%) (recombinant rat PAI-1; compound concentration 3 μM): 78%
Inhibition Rate of PAI-1 Activity (%) (recombinant rat PAI-1; compound concentration 10 μM): 87%
Inhibition Rate of PAI-1 Activity (%) (recombinant human PAI-1 [1]; Compound Concentration 5 μM): 87%
Inhibition Rate of PAI-1 Activity (%) (recombinant human PAI-1 [1]; Compound Concentration 10 μM): 96%
Inhibition Rate of PAI-1 Activity (%) (recombinant human PAI-1 [2]; Compound Concentration 0.1 μM): 9%
Inhibition Rate of PAI-1 Activity (%) (recombinant human PAI-1 [2]; Compound Concentration 0.3 μM): 16%
Inhibition Rate of PAI-1 Activity (%) (recombinant human PAI-1 [2]; Compound Concentration 1 μM): 43%
Inhibition Rate of PAI-1 Activity (%) (recombinant human PAI-1 [2]; Compound Concentration 3 μM): 96%
Compound: CC(C)Oc1ccc(N(Cc2ccc(C(C)(C)C)cc2)C(=O)C(=O)O)cc1-c1ccc(OC(F)(F)F)cc1 [Compound 211]

IC50 (recombinant rat PAI-1): 2330 nM
IC50 (recombinant human PAI-1 [2]): 1380 nM
Compound: CC(C)(C)c1ccc(COc2cc(Oc3ccc(OC(F)(F)F)cc3)ccc2CCC(=O)O)cc1 [Compound 78]

IC50 (recombinant rat PAI-1): 3240 nM
IC50 (recombinant human PAI-1 [2]): 1650 nM
Compound: CC(C)(Oc1cc(-c2ccc(OC(F)(F)F)cc2)ccc1OCCCCc1ccccc1)C(=O)O [Compound 116]

IC50 (recombinant rat PAI-1): 3680 nM
IC50 (recombinant human PAI-1 [2]): 1750 nM
Compound: CC(C)(C)c1ccc(Oc2cccc(-c3ccc(OC(F)(F)F)cc3)c2OCC(=O)O)cc1 [Compound 113]

IC50 (recombinant rat PAI-1): 2900 nM
IC50 (recombinant human PAI-1 [2]): 1330 nM
Compound: CC(C)(C)c1ccc(COc2ccc(Oc3ccc(OC(F)(F)F)cc3)cc2CCC(=O)O)cc1 [Compound 96]
